In US20250171431A1, “HETEROCYCLIC INHIBITORS OF IGF-1R FOR TREATMENT OF DISEASE” (HORIZON THERAPEUTICS IRELAND DAC, priority 2023, published 2025):

Molecular target: IGF-1R (Homo sapiens (Human), UniProt P08069)
Assay: Example B-1: IGF-1R Assay (PC3 cells, IGF1 stimulation, AlphaLISA)
Type: cell-based
Conditions: 200 ng/mL IGF1 stimulation, read-out: Biological Activity against IGF-1R IC50
Method in brief: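 Readout is AlphaLISA signal from lysed PC3 cells, expressed as % inhibition versus vehicle and EC80 controls and banded by IC50. Before lysis, the cells were starved of serum for 2 h, exposed to 3× serially diluted compound for 2 h, and stimulated for 30 min with 200 ng/mL IGF1 (final).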

Sequence of IGF-1R (P08069 31-1367): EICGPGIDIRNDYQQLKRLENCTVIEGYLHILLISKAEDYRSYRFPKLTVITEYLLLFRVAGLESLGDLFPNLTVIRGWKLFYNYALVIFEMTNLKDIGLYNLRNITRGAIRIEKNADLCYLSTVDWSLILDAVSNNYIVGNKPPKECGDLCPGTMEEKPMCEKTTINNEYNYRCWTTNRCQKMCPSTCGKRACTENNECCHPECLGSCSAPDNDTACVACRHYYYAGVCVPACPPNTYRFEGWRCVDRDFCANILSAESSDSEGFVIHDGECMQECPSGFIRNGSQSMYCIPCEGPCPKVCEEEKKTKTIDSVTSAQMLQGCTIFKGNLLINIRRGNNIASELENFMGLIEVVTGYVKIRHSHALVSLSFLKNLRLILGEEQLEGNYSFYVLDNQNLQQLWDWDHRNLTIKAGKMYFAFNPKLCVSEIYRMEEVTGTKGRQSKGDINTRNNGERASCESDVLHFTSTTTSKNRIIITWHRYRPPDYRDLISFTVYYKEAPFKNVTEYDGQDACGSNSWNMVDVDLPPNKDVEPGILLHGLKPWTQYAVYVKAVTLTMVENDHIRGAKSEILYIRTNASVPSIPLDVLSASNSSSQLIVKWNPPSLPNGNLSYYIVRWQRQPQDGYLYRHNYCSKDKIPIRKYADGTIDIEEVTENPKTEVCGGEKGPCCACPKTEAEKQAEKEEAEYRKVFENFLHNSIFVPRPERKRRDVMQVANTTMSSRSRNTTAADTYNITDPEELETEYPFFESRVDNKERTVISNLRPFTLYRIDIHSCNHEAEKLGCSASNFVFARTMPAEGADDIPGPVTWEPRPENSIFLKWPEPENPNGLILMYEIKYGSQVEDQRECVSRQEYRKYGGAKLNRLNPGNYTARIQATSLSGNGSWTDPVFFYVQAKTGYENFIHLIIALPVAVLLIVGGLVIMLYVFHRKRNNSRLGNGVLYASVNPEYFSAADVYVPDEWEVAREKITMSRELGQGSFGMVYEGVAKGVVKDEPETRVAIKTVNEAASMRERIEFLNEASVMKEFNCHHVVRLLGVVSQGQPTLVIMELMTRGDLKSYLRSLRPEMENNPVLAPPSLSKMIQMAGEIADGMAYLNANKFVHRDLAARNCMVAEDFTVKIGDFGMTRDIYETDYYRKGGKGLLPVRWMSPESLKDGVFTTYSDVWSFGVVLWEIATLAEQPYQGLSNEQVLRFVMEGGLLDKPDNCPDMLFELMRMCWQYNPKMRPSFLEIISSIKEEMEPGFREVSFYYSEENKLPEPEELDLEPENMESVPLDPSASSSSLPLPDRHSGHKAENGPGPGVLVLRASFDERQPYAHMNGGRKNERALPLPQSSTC

SMILES | IC50
COc1ccc2cc(Nc3ccnc(Nc4ccc(O[C@H]5C[C@H](N(C)C)C5)cc4)n3)cnc2c1 [Compound 355, 4-(7-methoxy-3-quinolylamino)-2-{p-[(1r,3r)-3-(dimethylamino)cyclobutoxy]phenylamino}pyrimidine] | 0.5 to 2 µM
COc1cc(Nc2nccc(Nc3cnc4c(c3)C3CCC4C3)n2)ccc1OCCCN1CCCCC1 (stereo not drawn) [Compound 56, 4-(3-azatricyclo[6.2.1.0^2,7]undeca-2,4,6-trien-5-ylamino)-2-[3-methoxy-4-(3-piperidinopropoxy)phenylamino] pyrimidine] | ≤ 0.5 µM
COc1cc(N2CCN(C3COC3)CC2)ncc1Nc1nccc(Nc2cc3cccc(F)c3[nH]c2=O)n1 [Compound 225, 8-fluoro-3-(2-{4-methoxy-6-[4-(3-oxetanyl)-1-piperazinyl]-3-pyridylamino}-4-pyrimidinylamino)-1,2-dihydro-2-quinolinone] | ≤ 0.5 µM
COc1cc(Nc2nccc(Nc3cc4cccc(F)c4[nH]c3=O)n2)cnc1N1CCN(C)C(C(F)(F)F)C1 (stereo not drawn) [Compound 174, 8-fluoro-3-((2-((5-methoxy-6-(4-methyl-3-(trifluoromethyl)piperazin-1-yl)pyridin-3-yl)amino)pyrimidin-4-yl)amino)quinolin-2(1H)-one] | 0.5 to 2 µM
CN(C)[C@H]1C[C@H](Oc2ccc(Nc3nccc(Nc4cnc5ccccc5c4)n3)cc2Br)C1 [Compound 34, 2-{3-bromo-4-[(1r,3r)-3-(dimethylamino)cyclobutoxy]phenylamino}-4-(3-quinolylamino)pyrimidine] | ≤ 0.5 µM
COc1cc(Nc2nccc(Nc3cnc4c(Cl)cncc4c3)n2)ccc1O[C@H]1C[C@@H](N(C)C)C1 [Compound 84, 4-(8-chloro-1,6-diaza-3-naphthylamino)-2-{3-methoxy-4-[(1s,3s)-3-(dimethylamino)cyclobutoxy]phenylamino}pyrimidine] | 0.5 to 2 µM
CN1CC(Oc2ccc(Nc3nccc(Nc4cnc5ccccc5c4)n3)cc2)C1 [Compound 295, 2-[p-(1-methyl-3-azetidinyloxy)phenylamino]-4-(3-quinolylamino)pyrimidine] | 2 to 10 µM
CC(O)C(=O)N1CCN(c2ccc(Nc3nccc(Nc4cnc5ccccc5c4)n3)cc2)CC1 (stereo not drawn) [Compound 465, 2-hydroxy-1-(4-{p-[4-(3-quinolylamino)-2-pyrimidinylamino]phenyl}-1-piperazinyl)-1-propanone] | ≤ 0.5 µM
COc1cc(N2CCN(C3COC3)CC2)ncc1Nc1ncc(F)c(Nc2cc3ccccc3nc2C(N)=O)n1 [Compound 495, 3-(5-fluoro-2-{4-methoxy-6-[4-(3-oxetanyl)-1-piperazinyl]-3-pyridylamino}-4-pyrimidinylamino)-2-quinolinecarboxamide] | ≤ 0.5 µM
Cc1ccc2cc(Nc3ccnc(Nc4ccc(OCCCN5CCOCC5)cc4)n3)cnc2c1 [Compound 407, 4-(7-methyl-3-quinolylamino)-2-[p-(3-morpholinopropoxy)phenylamino]pyrimidine] | 0.5 to 2 µM
COc1cc(Nc2nccc(Nc3cc(Cl)c4ncccc4c3)n2)ccc1OCCCN1CCCCC1 [Compound 457, 4-(8-chloro-6-quinolylamino)-2-[3-methoxy-4-(3-piperidinopropoxy)phenylamino] pyrimidine] | ≤ 0.5 µM
CN1[C@@H]2COC[C@H]1C[C@@H](Oc1ccc(Nc3nccc(Nc4cnc5ccccc5c4)n3)cc1)C2 [Compound 29, 2-(p-{(1R,5S,7r)-9-methyl-3-oxa-9-azabicyclo[3.3.1]non-7-yloxy}phenylamino)-4-(3-quinolylamino)pyrimidine] | ≤ 0.5 µM
COc1cc(Nc2nccc(Nc3cc4cc(F)c(F)cc4[nH]c3=O)n2)ccc1O[C@H]1C[C@@H](N(C)C)C1 [Compound 119, 6,7-difluoro-3-(2-{3-methoxy-4-[(1s,3s)-3-(dimethylamino)cyclobutoxy]phenyl-amino}-4-pyrimidinylamino)-1,2-dihydro-2-quinolinone] | ≤ 0.5 µM
COc1cc(Nc2nccc(Nc3cnc4cc(F)c(F)cc4c3)n2)cnc1OC1CCNCC1(F)F (stereo not drawn) [Compound 263, 2-[6-(3,3-difluoro-4-piperidyloxy)-5-methoxy-3-pyridylamino]-4-(6,7-difluoro-3-quinolylamino)pyrimidine] | ≤ 0.5 µM
COc1cc(Nc2nccc(Nc3cnc4c(c3)CC(C)CC4)n2)ccc1OCCCN1CCCCC1 (stereo not drawn) [Compound 62, 2-[3-methoxy-4-(3-piperidinopropoxy)phenylamino]-4-(6-methyl-5,6,7,8-tetrahydro-3-quinolylamino)pyrimidine] | ≤ 0.5 µM
COc1cc(Nc2nccc(Nc3cnc4c(c3)CCC3(CCCC3)C4)n2)ccc1O[C@H]1C[C@H](N(C)C)C1 [Compound 78, 4-(6′,8′-dihydro-5′H-spiro[cyclopentane-1,7′-quinolin]-3′-ylamino)-2-{3-methoxy-4-[(1r,3r)-3-(dimethylamino)cyclobutoxy]phenylamino}pyrimidine] | ≤ 0.5 µM
CN(C)[C@H]1C[C@H](Oc2ccc(Nc3nccc(Nc4cnc5c(c4)CCCC5)n3)cc2)C1 [Compound 315, 2-{p-[(1r,3r)-3-(dimethylamino)cyclobutoxy]phenylamino}-4-(5,6,7,8-tetrahydro-3-quinolylamino)pyrimidine] | ≤ 0.5 µM

SMILES | IC50
COc1cc(Nc2nccc(Nc3cnc4c(c3)CN(C)CC4)n2)ccc1OCCCN1CCCCC1 [Compound 379, 2-[3-methoxy-4-(3-piperidinopropoxy)phenylamino]-4-(6-methyl-5,6,7,8-tetrahydro-1,6-diaza-3-naphthylamino)pyrimidine] | 2 to 10 µM
COc1cc(Nc2cc(Nc3cnc4ccccc4c3)ccn2)ccc1O[C@H]1C[C@@H](N(C)C)C1 [Compound 265, 2-{3-methoxy-4-[(1s,3s)-3-(dimethylamino)cyclobutoxy]phenylamino}-4-(3-quinolylamino)pyridine] | 2 to 10 µM
COc1cc(Nc2nccc(Nc3cnc4c(c3)OCCO4)n2)ccc1OCCCN1CCOCC1 [Compound 389, 4-(2,3-dihydro-1,4-dioxa-5-aza-7-naphthylamino)-2-[3-methoxy-4-(3-morpholinopropoxy)phenylamino]pyrimidine] | ≤ 0.5 µM
COc1cc(Nc2nccc(Nc3cnc4ccc(Cl)cc4c3)n2)ccc1O[C@H]1C[C@H](N2CCOCC2)C1 [Compound 361, 4-(6-chloro-3-quinolylamino)-2-{3-methoxy-4-[(1r,3r)-3-morpholinocyclobutoxy]phenylamino}pyrimidine] | ≤ 0.5 µM
CCc1ccc2cc(Nc3ccnc(Nc4ccc(OCCCN5CCOCC5)cc4)n3)cnc2c1 [Compound 397, 4-(7-ethyl-3-quinolylamino)-2-[p-(3-morpholinopropoxy)phenylamino]pyrimidine] | 2 to 10 µM
Fc1cnc(Nc2ccc(OCCCN3CCCCC3)cc2)nc1Nc1cnc2ccccc2c1 [Compound 432, 5-fluoro-2-[p-(3-piperidinopropoxy)phenylamino]-4-(3-quinolylamino)pyrimidine] | ≤ 0.5 µM
COc1cc(Nc2nccc(Nc3cnc4ccc(Br)cc4c3)n2)ccc1O[C@H]1CC[C@@H](N(C)C)CC1 [Compound 33, 4-(6-bromo-3-quinolylamino)-2-{3-methoxy-4-[(1s,4s)-4-(dimethylamino)cyclohexyloxy]phenylamino}pyrimidine] | ≤ 0.5 µM
COc1cc(Nc2nccc(Nc3cnc4ccc(C)cc4c3)n2)ccc1O[C@H]1C[C@H](N(C)C)C1 [Compound 335, 2-{3-methoxy-4-[(1r,3r)-3-(dimethylamino)cyclobutoxy]phenylamino}-4-(6-methyl-3-quinolylamino)pyrimidine] | ≤ 0.5 µM
C[C@H]1COc2ncc(Nc3ccnc(Nc4ccc(OCCCN5CCOCC5)cc4)n3)cc2O1 [Compound 106, 4-[(S)-2-methyl-2,3-dihydro-1,4-dioxa-5-aza-7-naphthylamino]-2-[p-(3-morpholinopropoxy)phenylamino]pyrimidine] | 0.5 to 2 µM
COc1cc(Nc2nccc(Nc3cnc4c(c3)SCCC4)n2)ccc1O[C@H]1C[C@@H](N(C)C)C1 [Compound 366, 4-(3,4-dihydro-2H-1-thia-5-azanaphth-7-ylamino)-2-{3-methoxy-4-[(1s,3s)-3-(dimethylamino)cyclobutoxy]phenylamino}pyrimidine] | ≤ 0.5 µM
COc1cc(Nc2nccc(Nc3cnc4c(Cl)cccc4c3)n2)ccc1O[C@H]1CC[C@@H](N(C)C)CC1 [Compound 332, 4-(8-chloro-3-quinolylamino)-2-{3-methoxy-4-[(1s,4s)-4-(dimethylamino)cyclohexyloxy]phenylamino}pyrimidine] | ≤ 0.5 µM
c1ccc2ncc(Nc3ccnc(Nc4ccc(OCCCN5CCCCC5)c(OCC5CCCO5)c4)n3)cc2c1 (stereo not drawn) [Compound 402, 2-{4-(3-piperidinopropoxy)-3-[(tetrahydro-2-furyl)methoxy]phenylamino}-4-(3-quinolylamino)pyrimidine] | ≤ 0.5 µM
COc1cc(Nc2nccc(Nc3cnc4ccccc4c3)n2)ccc1OCCCN1CCOCC1 [Compound 14, 2-[3-methoxy-4-(3-morpholinopropoxy)phenylamino]-4-(3-quinolylamino)pyrimidine] | ≤ 0.5 µM
COc1nc(N2CCC(C)(O)CC2)ccc1Nc1nccc(Nc2cc3cccc(F)c3[nH]c2=O)n1 [Compound 231, 8-fluoro-3-{2-[6-(4-hydroxy-4-methyl-1-piperidyl)-2-methoxy-3-pyridylamino]-4-pyrimidinylamino}-1,2-dihydro-2-quinolinone] | ≤ 0.5 µM
COc1cc(Nc2nccc(Nc3ccc4c(n3)CC3CCC4N3C)n2)ccc1OCCCN1CCCCC1 (stereo not drawn) [Compound 4, 2-[3-methoxy-4-(3-piperidinopropoxy)phenylamino]-4-(12-methyl-6,12-diazatricyclo[7.2.1.0^2,7]dodeca-2,4,6-trien-5-ylamino)pyrimidine] | 2 to 10 µM
CN(C)[C@H]1C[C@H](Oc2ccc(Nc3nccc(Nc4cnc5ccccc5c4)n3)cc2C#N)C1 [Compound 42, 5-[4-(3-quinolylamino)-2-pyrimidinylamino]-2-[(1r,3r)-3-(dimethylamino)cyclobutoxy] benzonitrile] | ≤ 0.5 µM
